The values that follow come from patent US4315941A, “Urazole analogs of prostaglandin derivatives” (Beecham Group Limited, priority 1979, dated 1982).

This assay concerns 5-hydroxytryptamine or histamine induced bronchoconstriction. Briefly: Bronchodilation activity: inhibition of 5-hydroxytryptamine or histamine induced bronchoconstriction in the anaesthetised artificially respired guinea-pig (Konzett-Rossler preparation). The class given is in vivo, guinear-pig. Conditions: Cavia porcellus, iv, 5-hydroxytryptamine or histamine induced bronchoconstriction (Konzett-Rossler). The text has this: The compounds were examined for their ability to inhibit 5-hydroxytryptamine or histamine induced bronchoconstriction in the anaesthetised artificially respired guinear-pig (Konzett-Rossler preparation).
In turn, `CCCCC(C)C(C)(O)CCn1c(=O)n(C)c(=O)n1CCCCCCCCC(C)O` (stereo not shown) [Compound 1, 1-(9'-Hydroxydecyl)-2-(3"-hydroxy-3",4"-dimethyloctyl)-4-methyl-1,2,4-triazolidine-3,5-dione] displayed an ED50 of 0.02 mg/kg. As for `CCCCC(C)C(C)(O)CCn1c(=O)n(C)c(=O)n1C/C=C\CCCCC(C)O` (stereo not shown) [Compound 3], the figure is 0.0175 mg/kg; as for `CCCCCCC(C)(O)CCn1c(=O)n(C)c(=O)n1CCCCCCCC(C)O` (stereo not shown) [Compound 4], 0.0042 mg/kg. `CC(O)CCCC/C=C\Cn1c(=O)n(C)c(=O)n1CCC(C)(O)C1CCCCC1` (stereo not shown) [Compound 7] displayed an ED50 of 0.16 mg/kg.
